Consider 1 compound from US9493466B2, “Treatment of cancer with TOR kinase inhibitors” (Signal Pharmaceuticals, LLC, priority 2011, dated 2016).

Experiment in all cases: Cell viability assay for NSCLC lines
What all share (format): cell-based, human

In one assay the test system is NCI-H460. Particulars: NCI-H460, 3 days. The method, then: (§1) Cell Viability Assay for NSCLC Lines. Cell viability was assessed using the Cell Titer-Glo Luminescent Cell Viability from Promega. The assay is a homogenous method of determining the number of viable cells in culture based on quantitation of the adenosine triphosphate (ATP) present, an indicator of metabolically active cells. The homogenous assay procedure involves adding the single reagent (CellTiter-Glo Reagent) directly to cells cultured in serum-supplemented medium. Cells were plated into a 96-well flat bottom plate (Costar Catalog Number 33595) at densities that were previously optimized for each cell line. The cells were incubated overnight in 5% CO2 at 37° C. The following day, compound dilutions were prepared and all concentrations were assayed in triplicate. The cells were incubated with Compound 1 (0.03 μM, 0.1 μM, 0.3 μM, 1 μM, 3 μM, 10 μM and 30 μM for NSCLC cells) in 5% CO2 at 37° C. for 3 days. After a 3-day incubation period, 100 μL of CellTiter-Glo reagent was added to each well for 2 minutes with shaking and further incubated for 10 minutes (no shaking) at room temperature to stabilize the signal. The luminescence was measured on the VICTOR X2 multilabel plate reader. The percent growth inhibition was calculated using the DMSO control in the same plate (no compound) response as 100% cell growth. The average values from triplicates were plotted to obtain IC50 values using software XLfit from IDBS. The formula used for determining IC50 in XLfit was model number 205, which utilizes a 4 Parameter Logistic Model or Sigmoidal Dose-Response Model to calculate the IC50 values. All IC50 values are reported as an average from either two independent experiments or a single experiment.

The test system of the next assay is HOP92. The settings on record: HOP92, 3 days. The method, then:
as §1

Another assay deals with NCI-H647. Particulars: NCI-H647, 3 days. As for the experimental part: as §1
The test system of another assay is NCI-H28. The settings on record: NCI-H28, 3 days. The method, then: as §1
The next assay has as its system NCI-H2110. Particulars: NCI-H2110, 3 days. As for the experimental part: as §1
A further assay concerns NCI-H1792. Particulars: NCI-H1792, 3 days. As for the experimental part: as §1
The next assay concerns HOP62. The settings on record: HOP62, 3 days. The method, then: as §1
The next assay concerns NCI-H1944. The settings on record: NCI-H1944, 3 days. The method, then:
as §1

A further assay deals with NCI-H1993. The settings on record: NCI-H1993, 3 days. As for the experimental part: as §1
For the next assay, the system named is NCI-H1693. The settings on record: NCI-H1693, 3 days. As for the experimental part:
as §1

The next assay deals with Calu-3. Particulars: Calu-3, 3 days. As for the experimental part: as §1
The test system of another assay is NCI-H2122. The settings on record: NCI-H2122, 3 days. The method, then:
as §1

Another assay relates to NCI-H358. The settings on record: NCI-H358, 3 days. As for the experimental part:
as §1

A further assay deals with NCI-H23. The settings on record: NCI-H23, 3 days. As for the experimental part:
as §1

In another assay the test system is NCI-H441. Particulars: NCI-H441, 3 days. As for the experimental part: as §1
For another assay, the system named is Calu-6. The settings on record: Calu-6, 3 days. The method, then: as §1
Another assay has as its system NCI-H1650. Particulars: NCI-H1650, 3 days. The method, then:
as §1

Another assay has as its system NCI-H226. Particulars: NCI-H226, 3 days. The method, then: as §1
Another assay deals with NCI-H2444. Particulars: NCI-H2444, 3 days. As for the experimental part:
as §1

The next assay deals with NCI-H838. Particulars: NCI-H838, 3 days. As for the experimental part:
as §1

For the next assay, the system named is SW1573. The settings on record: SW1573, 3 days. The method, then: as §1
A further assay concerns NCI-H1437. The settings on record: NCI-H1437, 3 days. As for the experimental part:
as §1

In the next assay the test system is NCI-H1299. The settings on record: NCI-H1299, 3 days. The method, then:
as §1

Another assay has as its system SK-LU-1. Particulars: SK-LU-1, 3 days. The method, then:
as §1

By IC50 is commonly meant the concentration that gives 50% inhibition. A low value points to greater potency in that assay. Consider `CO[C@H]1CC[C@H](N2C(=O)CNc3ncc(-c4ccc(C(C)(C)O)nc4)nc32)CC1` [Compound 1, 7-(6-(2-hydroxypropan-2-yl)pyridin-3-yl)-1-((1r,4r)-4-methoxycyclohexyl)-3,4-dihydropyrazino-[2,3-b]pyrazin-2(1H)-one], for which the IC50 in the assay with NCI-H460 is 0.37 µM; in the assay on HOP92 it was over 30 µM; with NCI-H647, 1.36 µM; with NCI-H28 it was over 30 µM; in the assay on NCI-H2110, 0.456 µM; in the assay on NCI-H1792, 0.54 µM. Besides, the IC50 in the assay on HOP62 was 2.01 µM; with NCI-H1944 it was 0.55 µM; in the assay on NCI-H1993, 0.5 µM; with NCI-H1693 it was 1.58 µM; in the assay with Calu-3 it was 0.302 µM; in the assay with NCI-H2122, 0.9 µM. The IC50 with NCI-H358 was 1.42 µM; in the assay with NCI-H23, 2.21 µM; with NCI-H441, over 30 µM; in the assay with Calu-6, 4.52 µM; with NCI-H1650 it was over 30 µM; in the assay with NCI-H226, 1.75 µM. Moreover, the IC50 in the assay with NCI-H2444 is 0.778 µM; in the assay on NCI-H838 it was 0.39 µM; with SW1573, 7.21 µM; in the assay with NCI-H1437, 0.975 µM; with NCI-H1299, 1.23 µM; with SK-LU-1, 1.44 µM.
